1 substance from paper PMC11187126, “Structure and dynamics of the pyroglutamylated RF-amide peptide QRFP receptor GPR103” (Nature Communications, 2024) can be followed below.

As usually defined, the EC50 is the concentration at which the effect is half-maximal. The low end stands for higher potency in that assay, the high end for lower potency in that assay.

Where two headings read alike, the source gives them in different places. No end group written: not given here.

The test addresses T1, GPR103 Q318^7.39A (Homo sapiens, UniProt Q96P65, Q318A).
T1 construct: we used human full-length QRFPR-encoding plasmids; expressed in transfected cells; host or cells: HEK293 cells (HEK293A in the flow cytometry section), pCAGGS vector
T1 sequence (Q96P65 1-431 Q318A): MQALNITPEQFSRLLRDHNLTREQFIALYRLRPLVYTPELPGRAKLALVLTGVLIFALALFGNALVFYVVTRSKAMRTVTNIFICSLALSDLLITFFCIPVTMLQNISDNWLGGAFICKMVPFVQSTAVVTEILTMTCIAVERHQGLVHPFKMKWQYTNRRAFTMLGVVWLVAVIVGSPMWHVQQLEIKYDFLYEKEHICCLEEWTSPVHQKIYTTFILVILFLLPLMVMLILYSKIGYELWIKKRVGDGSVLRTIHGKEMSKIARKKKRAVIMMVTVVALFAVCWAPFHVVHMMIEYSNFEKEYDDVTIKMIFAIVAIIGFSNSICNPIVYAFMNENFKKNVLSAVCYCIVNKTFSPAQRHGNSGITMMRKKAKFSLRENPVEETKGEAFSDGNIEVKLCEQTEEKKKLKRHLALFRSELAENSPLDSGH
The test is described as follows: TGFα shedding assay; Exp. level WT (1:50). It counts as cell-based. The method, then:
For the TGFα shedding assay and the flow cytometry analysis, we used human full-length QRFPR-encoding plasmids. Specifically, GPR103 was N-terminally modified with an HA signal sequence followed by a FLAG epitope and then a flexible linker ([…]; the FLAG epitope is underlined) and inserted into the pCAGGS vector. Plasmid encoding GPR103 mutants were generated using Quickchange Site-Directed Mutagensis kit (Agilent).
The TGFα shedding assay was performed as described previously with minor modifications. Plasmid transfection was performed in a 6-well plate with a mixture of 500 ng (per well in a 6-well plate) AP-TGFα-encoding plasmid and 200 ng GPR103-encoding plasmid. After 1-day culture, the transfected cells were harvested by trypsinization, pelleted by centrifugation at 190 × g for 5 min, and washed once with 5 mM HEPES (pH 7.4)-containing Hank’s Balanced Salt Solution (HBSS). After centrifugation, the cells were resuspended in 8 mL of the HEPES-containing HBSS. The cell suspension was seeded in a 96-well culture plate (cell plate) at a volume of 90 μL (per well hereafter) and incubated in a 37 °C incubator with 5% CO2 for 30 min. […] After spinning the cell plates at 190 × g for 2 min, 80 μL of conditioned media was transferred to an empty 96-well plate (conditioned media (CM) plate). Then, 80 μL of AP reaction solution (10 mM p-nitrophenylphosphate (p-NPP), 120 mM Tris-HCl (pH 9.5), 40 mM NaCl, and 10 mM MgCl2) was dispensed into the cell plates and the CM plates. Absorbance at 405 nm of the plates was measured using a microplate reader (SpectraMax 340 PC384, Molecular Devices) before and after 1-h incubation at room temperature. Ligand-induced AP-TGFα release was calculated by subtracting spontaneous AP-TGFα release signal from ligand-induced AP-TGFα release signal. The AP-TGFα release signals were fitted to a four-parameter sigmoidal concentration–response curve, using the Prism 10 software (GraphPad Prism). For each replicate experiment, the pEC50 parameter (negative logarithmic values of EC50 values) of the individual GPR103 mutants were normalized to that of the wild-type GPR103 performed in parallel, and resulting ∆pEC50 values were used to denote ligand response activity of the mutants. […]
Exp. le vel: WT (1:5 0)Exp. le vel: WT (1:5 0)Exp. le vel: WT (1:5 0)Exp. le vel: WT (1:2 0)Exp. le vel: WT (1:2 0)Exp. le vel: WT (1:1 0) […]
L1 4N - t e r mA F2 5N - t e r mA I 2 6N - t e r mA Y 2 9N - t e r mA C 9 82 .5 7A T10 22 .6 1A Exp . l eve l: WT (1 :5)Exp . l evel : >WT (1 :1)Exp. le vel: WT (1:2 0)Exp. le vel: WT (1:2 0)Exp. le vel: WT (1:5 0)Exp . l eve l: WT (1 :1) […]
Exp. le vel: WT (1:1 0)Exp. le vel: WT (1:2 0) C 1 1 83 .2 5AExp. le vel: WT (1:5 0)Exp. le vel: WT (1:5 0)Exp. le vel: WT (1:2 0)Exp . l eve l: WT (1 :5) […]
Exp. le vel: WT (1:5 0)Exp. le vel: WT (1:1 0)Exp. le vel: WT (1:5 0) E203ECL2AExp . l evel : >WT (1 :1)Exp. le vel: WT (1:5 0)Exp. le vel: WT (1:5 0) […]
Exp . l eve l: WT (1 :1) F28Exp. le vel: WT (1:5 0) C 2 8 56 .4 7AExp. le vel: WT (1:2 0) WExp. le vel: WT (1:2 0) F28Exp. le vel: WT (1:5 0)Exp . l evel : >WT (1 :1) […]
Exp. le vel: WT (1:5 0)Exp. le vel: WT (1:5 0) C 3 2 77 .4 8AExp . l eve l: WT (1 :5)Exp . l evel : >WT (1 :1)Exp . l evel : >WT (1 :1) […]
Suppl eme nt ary Figure 1 | Mutational analysis of GPR103. […]
mutants. Data are presented as mean values ± SEM, normally n=3-5; dots), each performed in triplicate. b-d Cell-surface expression (b) and QRFP26-in-duced activation of GPR103 (c, d) were analyzed by the flow cytometry and the TGFα shedding assay, respectively. From the concentration–response curves (a), Emax (c) and ΔpEC50 (d) values relative to the wild type were calculated. Colors in the mutant bars indicate an expression level matching to that of titrated wild type. Statistical analyses were performed using the ordinary one-way ANOVA followed by Dunnett tests with the expression-matched […]

Take TSGPLGNLAEELNGYSRKKGGFSFRF-NH2 [QRFP26]: the Emax is 14.85 % WT (Exp. #1); 10.08 % WT (Exp. #2); 10.26 % WT (Exp. #3); 11.7% (mean, read-out: Emax); 11.7 ± 1.3% (n = 3, read-out: Emax). The same substance had an EC50 (n = 3) of 85.1 nM.
